Reference: patent EP4578857A1, “CRYPTOLEPINE SALT DERIVATIVE, AND PREPARATION METHOD THEREFOR AND USE THEREOF” (Nankai University, priority 2023, dated 2025)
Where two headings read alike, the source gives them in different places.

Tests used:
Format in all cases: in vivo
[1] = system: tobacco Mosaic virus (TMV); test: Anti-TMV activity: live protection function; conditions: for TMV activity / antiTMV activity: 500µg/mL, Table 4 (all three modes); for TMV activity: compared with ribavirin; for Relative inhibition rate (%) Live protection function: Treatment dose 500 mg/L, tobacco Xanthi nc sprayed 24h before inoculation, virus 10µg/mL, disease spots counted after 3 days; for antiTMV activity: compared with commercial Ningnanmycin; for inhibition at 500 µg/mL: Tobacco mosaic virus, read-out: Relative inhibition rate (%) Live protection function
Description: (§1) Determination of anti-tobacco Mosaic virus (TMV) activity by the following procedure:
(§2) The virus crude extract was centrifuged with polyethylene glycol at twice and refrigerated at 4°C for use. The absorbance of 260nm wavelength was determined by ultraviolet spectrophotometer, and the virus concentration was calculated according to the formula. Virus concentration(mg/ml) = (A260 × dilution ratio)(/E)^0.10 1cm^260nm . [formula]
(§3) After weighing, cryptolepine salt derivative, ningnanmycin and the original drug of ribavirin were dissolved in DMF to obtain 1×10^5µg/mL mother solution, and then diluted to the required concentration with 1‰ Tween 80 aqueous solution.
Select the 3-5 leaf stage of tobacco Xanthi nc with uniform growth, spray the whole plant, repeat each treatment 3 times, and set 1‰ Tween80 aqueous solution as control. 24h later, the leaf surface was coated with emery (500 mesh), the disease venom was dipped with a brush, and the whole leaf surface was gently rubbed twice along the direction of the branch pulse by using the brush, the leaf was supported by palm of hand, the virus concentration was 10µg/mL, and the leaf was washed by water after inoculation. After 3 days, the number of disease spots was recorded and the prevnetion and control effect was calculated.

[2] = system: rice sheath blight strains; test: Bactericidal activity test: resistance to rice sheath blight (live pot test); conditions: for pest or weed control at 400 µg/mL: Oryza sativa, 144 h
Description: Bactericidal activity test, the determination procedure is as follows: Test of resistance to rice sheath blight: Select uniformly growing rice seedlings and spray them on the leaves at the set concentration, set a water sprayring group as blank control, every treatment was repeated twice. After 24h, the rice seedlings were inoculated with rice sheath blight strains and placed at room temperature (25±4°C) for normal management after inoculation. The prevention and control effect was investigated by visual inspection 6 days after inoculation.

[3] = system: tobacco Mosaic virus (TMV); test: Anti-TMV activity: living passivation activity test; conditions: for Relative inhibition rate (%) Living passivation activity test: Treatment dose 500 mg/L, sample mixed with virus juice for 30min, then inoculated on tobacco Xanthi nc, virus 20µg/mL, 3 days; for inhibition at 500 µg/mL: Tobacco mosaic virus, read-out: Relative inhibition rate (%) Living passivation activity test
Description: as §1, §2, §3
Select the 3-5 leaf stage of tobacco Xanthi nc with uniform growth, mix the test sample agent with the same volume of virus juice to passivate for 30min, friction inoculation, virus concentration 20µg/mL, the leaf was washed with running water after inoculation, repeat 3 times, set 1‰ Tween 80 aqueous solution as control. 3 days later, the number of disease spots was calculated. [formula]
Anti-tobacco Mosaic virus passivation activity test of all compounds was at a treatment dose of 500µg/mL. The positive control was the commercial anti-plant virus agent viriazole.

[4] = system: tobacco Mosaic virus (TMV); test: Anti-TMV activity: live treatment effect; conditions: for Relative inhibition rate (%) Live treatment effect: Treatment dose 500 mg/L, tobacco Xanthi nc inoculated (virus 10µg/mL), then sprayed, disease spots counted after 3 days; for inhibition at 500 µg/mL: Tobacco mosaic virus, 72 h, read-out: Relative inhibition rate (%) Live treatment effect
Description: as §1, §2, §3
Select the 3-5 leaf stage of tobacco Xanthi nc with uniform growth, use a brush to vaccinate the virus in the whole leaf, the virus concentration is 10µg/mL, and the leaf was washed with running water after inoculation. After the leaves were dried, the whole plant was sprayed with test sample, repeated 3 times every treatment, and 1‰ Tween 80 aqueous solution was set as control. After 3 days, the number of disease spots was recorded and the prevnetion and control effect was calculated.

[5] = 400mg/L leaf spray on rice seedlings, inoculated after 24h, visual inspection 6 days after inoculation
[6] = 400mg/L leaf spray on rice seedlings, inoculated after 24h, visual inspection 6 days after inoculation, read-out: Resistance to rice sheath blight (%)/400mg/L
[7] = live pot test, summary of Table 5 (400mg/L), read-out: bactericidal activity against rice sheath blight
[8] = read-out: Resistance to rice sheath blight (%)/400mg/L
[9] = read-out: bactericidal activity against rice sheath blight

Structure (SMILES) | TMV activity [1] | inhibition at 500 µg/mL [1] | pest or weed control at 400 µg/mL [2, 6] | inhibition at 500 µg/mL [3] | inhibition at 500 µg/mL [4] | pest or weed control at 400 µg/mL [2, 8] | also measured
Cc1ccc(S(=O)(=O)n2c3ccc(I)cc3c3c2cc2ccccc2[n+]3C)cc1.[Cl-] [Example 7] | better TMV activity than the ribavirin | – | – | – | – | – | Relative inhibition rate (%) Live protection function [1]: 44.5±0.4%; Resistance to rice sheath blight (%)/400mg/L [2, 5]: 40±0%; Relative inhibition rate (%) Living passivation activity test [3]: 47.7±3.1%; Relative inhibition rate (%) Live treatment effect [4]: 43.0±3.5%
C[n+]1c2ccccc2c(NCCCCN)c2[nH]c3ccccc3c21 [Example 34] | better TMV activity than the ribavirin | 50.3 ± 2.1% | 20% | 41.2 ± 4.6% | 43.9 ± 2% | – | antiTMV activity [1]: comparable to that of commercial Ningnanmycin
C[n+]1c2ccccc2c(NCC(C)(C)N)c2[nH]c3ccccc3c21 [Example 36] | – | 29.8 ± 2.1% | 35 ± 5% | 28.7 ± 1.1% | 30.1 ± 0.2% | – | –
C[n+]1c2ccccc2c(NCCCN2CCCCC2)c2[nH]c3ccccc3c21 [Example 47] | – | 36.4 ± 2.8% | 45 ± 5% | 35.7 ± 0.3% | 33.3 ± 2% | – | pest or weed control at 400 µg/mL [2, 7]: > 50%
CN(C)CC(C)(C)CNc1c2ccccc2[n+](C)c2c1[nH]c1ccccc12 [Example 39] | – | 25.4 ± 3.8% | 25 ± 5% | 28.9 ± 2.1% | 30.1 ± 0.2% | – | –
Cc1ccc(S(=O)(=O)n2c3ccccc3c3c2cc2ccccc2[n+]3CC(C)(C)C)cc1 [Example 20] | better TMV activity than the ribavirin | 51.3 ± 3.5% | – | 53 ± 2.1% | 48.5 ± 3% | 55 ± 5% | antiTMV activity [1]: comparable to that of commercial Ningnanmycin; pest or weed control at 400 µg/mL [2, 9]: > 50%
CCCCCCCCCCCCNc1c2ccccc2[n+](C)c2c1[nH]c1ccccc12 [Example 25] | – | – | – | – | – | – | Relative inhibition rate (%) Live protection function [1]: 27.3±3.0%; Resistance to rice sheath blight (%)/400mg/L [2, 5]: 20±0%; Relative inhibition rate (%) Living passivation activity test [3]: 35.1±0.1%; Relative inhibition rate (%) Live treatment effect [4]: 22.1±1.1%
CCCCC(CC)CNc1c2ccccc2[n+](C)c2c1[nH]c1ccccc12 (stereo not shown) [Example 27] | better TMV activity than the ribavirin | 52.1 ± 2.8% | 30% | 47.9 ± 1.5% | 46.3 ± 4.2% | – | antiTMV activity [1]: comparable to that of commercial Ningnanmycin
COc1ccc2c(c1)cc1c(c3ccccc3n1S(=O)(=O)c1ccc(C)cc1)[n+]2C [Example 10] | – | 17 ± 1% | – | 19.1 ± 0.2% | 10.2 ± 0.7% | 30% | –
Cc1ccc(S(=O)(=O)n2c3ccc(F)cc3c3c2cc2ccccc2[n+]3C)cc1 [Example 4] | – | 21.6 ± 3.4% | – | 14.1 ± 1.3% | 18.6 ± 1.2% | 60% | pest or weed control at 400 µg/mL [2, 9]: > 50%
CN1CCC(Nc2c3ccccc3[n+](C)c3c2[nH]c2ccccc23)CC1 [Example 44] | – | 27.3 ± 4.4% | 55 ± 5% | 35.3 ± 2.1% | 33.1 ± 0.3% | – | pest or weed control at 400 µg/mL [2, 7]: > 50%
Cc1ccc(S(=O)(=O)n2c3ccccc3c3c2cc2cc(F)ccc2[n+]3C)cc1 [Example 11] | – | 27.6 ± 1.4% | – | 22.3 ± 1% | 30.1 ± 1.1% | 40% | –
CCCCCNc1c2ccccc2[n+](C)c2c1[nH]c1ccccc12 [Example 24] | – | – | – | – | – | – | Relative inhibition rate (%) Live protection function [1]: 36.9±3.7%; Resistance to rice sheath blight (%)/400mg/L [2, 5]: 30±0%; Relative inhibition rate (%) Living passivation activity test [3]: 35.2±1.0%; Relative inhibition rate (%) Live treatment effect [4]: 30.3±0.8%
Cc1ccc(S(=O)(=O)n2c3ccccc3c3c2cc2cc(C)ccc2[n+]3C)cc1 [Example 9] | – | 23.8 ± 3.5% | – | 23.1 ± 0.9% | 19.1 ± 0.1% | 70% | pest or weed control at 400 µg/mL [2, 9]: > 50%
Cc1ccc(S(=O)(=O)n2c3ccccc3c3c2cc2ccc(Cl)cc2[n+]3C)cc1 [Example 17] | – | 30.2 ± 1.7% | – | 33.1 ± 1.1% | 23.5 ± 2.1% | 40% | –
C[n+]1c2ccccc2c(N2CCN(CCN)CC2)c2[nH]c3ccc(Cl)cc3c21 [Reference Example 2, reference compound] | – | 15.2 ± 1.1% | 0% | 15.3 ± 2.1% | 18.1 ± 0.2% | – | bactericidal activity against rice sheath blight ([2]; live pot test, result in words, summary of Table 5 (400mg/L)): no activity
Cc1ccc(S(=O)(=O)n2c3ccc(C)cc3c3c2cc2ccccc2[n+]3C)cc1 [Example 2] | – | 26.5 ± 3% | – | 25.3 ± 2.3% | 20.5 ± 0.9% | 40% | –
COc1ccc2c(c1)c1c(cc3ccccc3[n+]1C)n2S(=O)(=O)c1ccc(C)cc1 [Example 3] | – | 18.1 ± 3.1% | – | 20.3 ± 0.2% | 19.1 ± 0.1% | 35 ± 5% | –
CN1CCCC(CNc2c3ccccc3[n+](C)c3c2[nH]c2ccccc23)C1 (stereo not shown) [Example 46] | better TMV activity than the ribavirin | 44.7 ± 4% | 30% | 46.3 ± 3.5% | 40.1 ± 0.9% | – | –
Cc1ccc(S(=O)(=O)n2c3ccccc3c3c2cc2cc(Br)ccc2[n+]3C)cc1 [Example 13] | better TMV activity than the ribavirin | 50.8 ± 1% | – | 46.1 ± 3.9% | 52 ± 2.4% | 35 ± 5% | antiTMV activity [1]: comparable to that of commercial Ningnanmycin
Cc1ccc(S(=O)(=O)n2c3ccccc3c3c2cc2ccccc2[n+]3Cc2ccccc2)cc1 [Example 21] | better TMV activity than the ribavirin | 41.4 ± 3.9% | – | 35.9 ± 4% | 32.3 ± 1.8% | 40% | –
Cc1ccc(S(=O)(=O)n2c3ccccc3c3c2cc2ccccc2[n+]3CC2CC2)cc1 [Example 18] | better TMV activity than the ribavirin | 45.6 ± 0.9% | – | 40.8 ± 2.9% | 38.7 ± 2.4% | 45 ± 5% | pest or weed control at 400 µg/mL [2, 9]: > 50%
CN1CCC(CNc2c3ccccc3[n+](C)c3c2[nH]c2ccccc23)CC1 [Example 45] | – | 30.7 ± 2.6% | 30% | 25.6 ± 1.1% | 28.1 ± 0.3% | – | –
C[n+]1c2ccccc2c(NCC2CCCCC2)c2[nH]c3ccccc3c21 [Example 30] | – | 20.9 ± 2.9% | 35 ± 5% | 30 ± 0.8% | 21.5 ± 1.1% | – | –
Cc1ccc(S(=O)(=O)n2c3ccccc3c3c2cc2ccc(C)cc2[n+]3C)cc1 [Example 16] | – | 28.1 ± 4.5% | – | 18.9 ± 0.8% | 30.1 ± 1.1% | 95 ± 5% | pest or weed control at 400 µg/mL [2, 9]: > 95%
C[n+]1c2ccccc2c(NCCN)c2[nH]c3ccccc3c21 [Example 32] | – | 25.1 ± 4.3% | 30% | 28.7 ± 2.1% | 30.1 ± 0.4% | – | –
